Where two headings read alike, the source gives them in different places. Where no end group is shown, it is not given here.
What was measured:
[1] = molecular target: T1, DRB3*0301 (DRA*0101/DRB3*0301) (Homo sapiens, UniProt P01903+P79483, A169T/A212P/D57E/G115V/L67V/Q178H/R103Q/R40L/Y55F); experiment: Direct LOCI peptide-MHC-II binding assay, DRB3*0301
T1 construct: DRA*01011-181LZFos; DRB3*03011-190LZJunBSP; made in house

[2] = molecular target: DP401 (DPA1*0103/DPB1*0401) (Homo sapiens, UniProt P04440+P20036); experiment: Direct LOCI peptide-MHC-II binding assay, DP401
I-E^d = molecular target: T2, I-E^d (Mus musculus, UniProt P01904+P01915); experiment: Direct LOCI peptide-MHC-II binding assay, I-E^d
T2 construct: I-E^dA1-191LZFos; I-E^dB1-198LZJunBSP; made in house

[3] = molecular target: T3, DR2a (DRA*0101/DRB5*0101) (Homo sapiens, UniProt P01903+Q30154); experiment: Direct LOCI peptide-MHC-II binding assay, DR2a
T3 construct: DRA*01011-181LZFos; DRB5*01011-190LZJunBSP; made in house

DR3 (DRA*0101/DRB1*0301) = molecular target: T4, DR3 (DRA*0101/DRB1*0301) (Homo sapiens, UniProt P01903+P01911, A100K/A102G/A103R/A169T/F55Y/I96L/K41T/L162R/M171V/P40S/Q125H/Q178H/Q39Y/R42S/S66N/T106N/T262R/W38E/Y61H); experiment: Direct LOCI peptide-MHC-II binding assay, DR3
T4 construct: DRA*01011-181LZFos; DRB1*03011-190LZJunBSP; made in house

DR4 (DRA*0101/DRB1*0401) = molecular target: T5, DR4 (DRA*0101/DRB1*0401) (Homo sapiens, UniProt P01903+P01911, A100K/A169T/F76Y/I96L/K127E/L162R/M171V/N62H/P40V/Q125Y/R42H/S133A/S149N/S66Y/V115G/V209L/W38E); experiment: Direct LOCI peptide-MHC-II binding assay, DR4
T5 construct: DRA*01011-181LZFos; DRB1*04011-190LZJunBSP; made in house

[4] = molecular target: T3, DR2a (DRA*0101/DRB5*0101); experiment: Competitive LOCI peptide-MHC-II binding assay, DR2a
[5] = molecular target: T6, DRB1*0813 (DRA*0101/DRB1*0813) (Homo sapiens, UniProt P01903+P01911, A100R/A103L/A169T/F76Y/H45Y/I96L/K41T/L162R/M171V/P40S/Q125H/Q178H/Q39Y/Q99D/R218S/R42G/S66Y/V115G/W38E); experiment: Direct LOCI peptide-MHC-II binding assay, DRB1*0813
T6 construct: DRA*01011-181LZFos; DRB1*08131-190LZJunBSP; made in house

[6] = pH 7, 48 h 18°C, read-out: DRB3*0301 affinity
[7] = pH 6, 48 h 18°C, read-out: DR2a pH6 affinity
[8] = pH 6-7, 48 h 18°C, read-out: DR3 affinity
[9] = pH 6-7.5, 48 h 18°C, read-out: DR4 affinity
[10] = pH 7, 48 h 18°C, read-out: DP401 affinity
[11] = pH 6-7.5, 48 h 18°C, read-out: DR2a Komp IC50
[12] = pH 6-7.5, 48 h 18°C, read-out: DRB1*0813 affinity
[13] = 48 h 18°C, read-out: I-E^D affinity

Molecule	Kd [1]	Kd (I-E^d)	Kd [3]	Kd (DR3 (DRA*0101/DRB1*0301))	Kd (DR4 (DRA*0101/DRB1*0401); DR4 affinity (nM))	Kd ([2]; DP401 affinity (nM))	IC50 ([4]; DR2a Komp IC50 (nM))	Kd [5]	Kd (I-E^d; I-E^D affinity (nM))	also measured
CC[C@H](C)[C@H](NC(=O)CNC(=O)[C@@H](NC(=O)[C@H](Cc1ccccc1)NC(=O)[C@H](CCCCN)NC(=O)[C@H](CO)NC(=O)[C@H](CC(N)=O)NC(=O)[C@H](C)NC(=O)[C@H](CCCCN)NC(=O)[C@@H](NC(=O)[C@H](Cc1ccc(O)cc1)NC(=O)[C@@H](N)CCC(N)=O)[C@@H](C)CC)[C@@H](C)CC)C(=O)N[C@H](C(=O)N[C@@H](CCC(=O)O)C(=O)O)[C@@H](C)O [Clostridium tetanus]	0.001 µM	1500 nM	–	–	–	–	–	–	–	Kd [2]: 56 nM
FLIDLAFLI [Pox.o42.con A2]	–	–	–	–	–	–	–	–	–	Kd [1, 6]: > 5 µM; Kd [3, 7]: > 5 µM; Kd (DR3 (DRA*0101/DRB1*0301); [8]): > 5 µM; Kd (DR4 (DRA*0101/DRB1*0401); [9]): > 5000 nM; Kd [2, 10]: 179 nM; IC50 [4, 11]: 4280 nM; Kd [5, 12]: > 5 µM; Kd (I-E^d; [13]): > 5000 nM
YILLKKILSSRFNQM [Plasmodium Falciparum]	0.001 µM	–	0.004 µM	0.032 µM	94 nM	1 nM	2 nM	0.004 µM	20 nM	Kd (DR4 (DRA*0101/DRB1*0401); KD, DR4): 133 nM; Kd ([2]; KD, DP401): 0.8 nM; IC50 ([4]; IC50, DR2a inhibition assay): 0.6 nM; Kd (I-E^d; KD, I-E^d): 14 nM
CSCC[C@H](NC(=O)[C@@H](N)Cc1ccccc1)C(=O)N[C@@H](CO)C(=O)N[C@@H](CCCNC(=N)N)C(=O)N[C@@H](CCCCN)C(=O)N[C@@H](CC(C)C)C(=O)N[C@@H](Cc1c[nH]cn1)C(=O)N[C@@H](CCCNC(=N)N)C(=O)N[C@@H](Cc1ccc(O)cc1)C(=O)O [Hantaan]	–	3 nM	> 5 µM	–	–	–	–	–	–	IC50 [4]: 2550 nM
CC(C)C[C@H](NC(=O)CNC(=O)[C@H](Cc1c[nH]c2ccccc12)NC(=O)CNC(=O)[C@@H](NC(=O)[C@@H]1CCCN1C(=O)[C@@H](NC(=O)[C@H](C)NC(=O)[C@H](CC(=O)O)NC(=O)[C@H](C)NC(=O)[C@H](Cc1ccccc1)NC(=O)[C@@H](NC(=O)[C@H](CCC(N)=O)NC(=O)[C@H](CS)NC(=O)[C@H](CC(C)C)NC(=O)[C@@H](N)Cc1ccc(O)cc1)C(C)C)[C@@H](C)O)[C@@H](C)O)C(=O)O	2.06 µM	> 5000 nM	3.7 µM	0.069 µM	–	–	–	2.99 µM	–	Kd (DR4 (DRA*0101/DRB1*0401)): 18 nM; Kd [2]: 13 nM; IC50 [4]: > 5000 nM
GVTYEIDLTNKN [Mycobact leprea]	> 5 µM	–	> 5 µM	4.35 µM	2550 nM	> 5000 nM	> 5000 nM	> 5 µM	> 5000 nM	–
PIVQNIQGQMVHQ [HIV]	0.023 µM	–	0.447 µM	0.471 µM	> 5000 nM	> 5000 nM	852 nM	> 5 µM	> 5000 nM	–
RMIAISAKV [Pox.o42.con.im. A2]	–	–	–	–	–	–	–	–	–	Kd [1, 6]: 1.26 µM; Kd [3, 7]: 1.65 µM; Kd (DR3 (DRA*0101/DRB1*0301); [8]): 0.516 µM; Kd (DR4 (DRA*0101/DRB1*0401); [9]): > 5000 nM; Kd [2, 10]: > 5000 nM; IC50 [4, 11]: 1990 nM; Kd [5, 12]: 0.267 µM; Kd (I-E^d; [13]): > 5000 nM
CSCC[C@H](NC(=O)[C@H](CCCNC(=N)N)NC(=O)[C@H](CCSC)NC(=O)[C@H](CCCCN)NC(=O)[C@H](CO)NC(=O)[C@@H](NC(=O)[C@@H]1CCCN1C(=O)[C@H](CCCCN)NC(=O)[C@@H]1CCCN1C(=O)[C@@H]1CCCN1C(=O)[C@H](CCCCN)NC(=O)[C@@H]1CCCN1C(=O)[C@@H](N)CC(C)C)C(C)C)C(=O)N[C@@H](C)C(=O)N[C@H](C(=O)N1CCC[C@H]1C(=O)N[C@@H](CC(C)C)C(=O)N[C@@H](CC(C)C)C(=O)N[C@@H](CCSC)C(=O)N[C@@H](CCC(N)=O)C(=O)N[C@@H](C)C(=O)N[C@@H](CC(C)C)C(=O)N1CCC[C@H]1C(=O)N[C@@H](CCSC)C(=O)N[C@@H](Cc1ccc(O)cc1)C(=O)N[C@@H](Cc1c[nH]cn1)C(=O)N[C@@H](Cc1c[nH]cn1)C(=O)N[C@@H](Cc1c[nH]cn1)C(=O)N[C@@H](Cc1c[nH]cn1)C(=O)N[C@@H](Cc1c[nH]cn1)C(=O)N[C@@H](Cc1c[nH]cn1)C(=O)O)[C@@H](C)O [CLIP 6xH]	–	–	–	–	–	–	–	–	–	Kd ([1]; read-out: DRB3*0301 affinity): 0.001 µM; Kd ([3]; read-out: DR2a pH6 affinity): 0.001 µM; Kd (DR3 (DRA*0101/DRB1*0301); read-out: DR3 affinity): 0.001 µM; Kd (DR4 (DRA*0101/DRB1*0401); read-out: DR4 affinity): 1 nM; Kd ([2]; read-out: DP401 affinity): 1 nM; IC50 ([4]; competitive LOCI, 4 nM biotin-PEG-HA306–318 agonist, β chain without biotin, α/β 13/5 nM, pH 6-7.5, L243, 48 h 18°C, average of 2–4 measurements, read-out: DR2a Komp IC50): 1 nM; Kd ([5]; read-out: DRB1*0813 affinity): 0.002 µM
CC[C@H](C)[C@H](NC(=O)[C@@H](N)CCCCN)C(=O)N[C@@H](CC(C)C)C(=O)N[C@@H](CCC(=O)O)C(=O)N1CCC[C@H]1C(=O)N[C@@H](Cc1ccccc1)C(=O)N[C@@H](CCCNC(=N)N)C(=O)N[C@@H](CCCCN)C(=O)N[C@@H](Cc1ccc(O)cc1)C(=O)N[C@H](C(=O)N[C@@H](C)C(=O)N[C@@H](Cc1ccccc1)C(=O)N[C@H](C(=O)N[C@H](C(=O)N1CCC[C@H]1C(=O)O)[C@@H](C)CC)[C@@H](C)O)[C@@H](C)O	1.02 µM	–	0.016 µM	0.018 µM	1600 nM	30 nM	1 nM	0.011 µM	2200 nM	–
HHHHHHIEGRFAALWFRNHFVFGGGTK [6xH Lambda 2(315)]	1.2 µM	–	0.005 µM	0.882 µM	11 nM	2 nM	20 nM	0.008 µM	26 nM	–
WMARRHAER [Brucella]	–	6 nM	> 5 µM	–	–	–	–	–	–	IC50 [4]: > 5000 nM
PLKAEIAQRLEDV [Influenza]	0.011 µM	> 5000 nM	0.065 µM	0.134 µM	–	–	–	> 5 µM	–	Kd (DR4 (DRA*0101/DRB1*0401)): 2680 nM; Kd [2]: 2090 nM; IC50 [4]: 41 nM
YILFLVKMNALRRLPV	–	–	–	–	–	–	–	–	–	Kd [1, 6]: 0.003 µM; Kd [3, 7]: 0.005 µM; Kd (DR3 (DRA*0101/DRB1*0301); [8]): 0.039 µM; Kd [2, 10]: 45 nM; IC50 [4, 11]: 20 nM; Kd [5, 12]: 0.078 µM; Kd (I-E^d; [13]): 582 nM
IQMLKNGKKIPKVEMS [Murine β2m]	0.07 µM	–	0.006 µM	0.021 µM	> 5000 nM	> 5000 nM	3 nM	0.073 µM	117 nM	–
CC[C@H](C)[C@H](N)C(=O)N[C@H](C(=O)N[C@@H](Cc1ccccc1)C(=O)N[C@@H](CCSC)C(=O)N[C@@H](Cc1c[nH]c2ccccc12)C(=O)N[C@@H](C)C(=O)N[C@H](C(=O)N[C@@H](Cc1c[nH]cn1)C(=O)N[C@@H](Cc1c[nH]cn1)C(=O)O)[C@@H](C)CC)C(C)C [Flu HA1194-202]	> 5 µM	> 5000 nM	0.167 µM	> 5 µM	–	–	–	0.276 µM	–	Kd (DR4 (DRA*0101/DRB1*0401)): > 5000 nM; Kd [2]: > 5000 nM; IC50 [4]: 529 nM
FLYGALLLA [MBP]	–	–	> 5 µM	> 5 µM	> 5000 nM	34 nM	> 5000 nM	> 5 µM	> 5000 nM	–
YLFFYRKSV [TERT572Y]	–	–	2.65 µM	> 5 µM	1590 nM	> 5000 nM	> 5000 nM	0.095 µM	322 nM	–
CC[C@H](C)[C@H](NC(=O)[C@H](Cc1ccccc1)NC(=O)[C@@H]1CCCN1C(=O)[C@@H](N)Cc1ccc(O)cc1)C(=O)N[C@@H](CCC(=O)O)C(=O)N[C@@H](CCC(N)=O)C(=O)N[C@@H](CCC(=O)O)C(=O)NCC(=O)N1CCC[C@H]1C(=O)N[C@@H](CCC(=O)O)C(=O)N[C@@H](Cc1ccccc1)C(=O)N[C@@H](Cc1ccccc1)C(=O)N[C@@H](CC(=O)O)C(=O)N[C@@H](CCC(N)=O)C(=O)N[C@@H](CCC(=O)O)C(=O)O	–	–	> 5 µM	–	–	> 5000 nM	> 5000 nM	> 5 µM	> 5000 nM	Kd [1, 6]: 3.23 µM; Kd (DR3 (DRA*0101/DRB1*0301); [8]): 0.289 µM
